Measurements taken from US20090048339A1, “COMPOSITIONS OF CIS-9, TRANS-11 CONJUGATED LINOLEIC ACID AND VACCENIC ACID AND USES THEREOF” (FONTERRA CORPORATE RESEARCH AND DEVELOPMENT LIMITE, priority 2005, published 2009).

Tests used:
[1] = mice, two week feeding period; cited from earlier work
IL-5 = IL-5 in BAL fluid by ELISA after allergen challenge; format: in vivo, C57BL/6 mice; conditions: vs AIN-93G control
Source text: The levels of IL-5 and eotaxin in the BAL fluid were quantitated by ELISA using a Quantikine mouse IL-5 ELISA kit and a mouse eotaxin Quantikine ELISA kit (R&D Systems, MN), respectively, according to the manufacturers' instructions. The detection limits were 3 pg/ml for eotaxin and 7 pg/ml for IL-5.
IL-5 and eotaxin produced by a variety of different cell types in the sensitized lung play key roles in asthma by controlling the development and release of eosinophils from the bone marrow, and their accumulation, activation and survival in the lung (Walsh et al., 2005; Shinagawa et al., 2003). Challenge with allergen led to marked increases in the levels of IL-5 and eotaxin (data not shown) in the BAL fluid of control mice fed the AIN93G diet (FIG. 3).

[2] = humans; cited from earlier work
[3] = Blood triglyceride levels (Accutrend GCT meter); conditions: diet with 0.21% VA; P<0.05; data not shown
[4] = test system: allergen-induced accumulation of leukocytes into the lung; experiment: OVA-induced asthma mouse model: bronchoalveolar lavage (BAL) total and differential cell counts; format: in vivo, C57BL/6 mice; conditions: for increase of total BAL cell counts vs control diet: single-supplement diets (0.14% cis-9, trans-11 CLA or 0.21% VA), BAL 6 days after intranasal OVA challenge, vs AIN93G control; for increase of accumulation of eosinophils in BAL vs control diet: single-supplement diets, BAL 6 days after OVA challenge, not significant; for effect on leukocyte infiltration into the airway lumen: summary statement
Experimental: (§1) Eight to nine week old male and female C57BL/6 mice (University of Auckland, New Zealand) were kept on an ovalbumin (OVA)-free normal mouse chow diet from weaning up until they were assigned to a particular diet (control or experimental diet). Each diet group (n=6) contained an equal number of male and female mice. Throughout the study period mice were kept in an air-conditioned room with controlled humidity, temperature, and a 12h light:dark cycle.
(§2) Healthy control mice were maintained on an unmodified AIN-93G diet. Soybean oil (which contains no CLA) was the dietary fat source in the AIN-93G diet. The final fat content of all treatment diets used in the Examples was maintained at the same level as the fat content of the control AIN-93G diet by reducing the soybean oil content of the treatment or control diets as required. Fresh diet was provided biweekly, and mice had free access to food and water throughout the study.
Bronchoalveolar lavage was performed immediately after euthanasia by flushing 1 ml of PBS containing 1% heat inactivated fetal calf serum (lavage buffer) thrice through the lung and airways of mice via the cannulated trachea. The recovered BAL was pooled for each animal, centrifuged at 1,500 rpm at 4° C., and the supernatant stored at −80° C. The cell pellets were resuspended in 1 ml of lavage buffer, and total cell numbers were counted using a hemocytometer. BAL cells were centrifuged onto poly-L-lysine-coated glass slides using a cytospin, and stained with Diff-Quik stain (Dade Behring Inc. USA). Differential cellular counts were made by counting ≧300 cells under light microscopy (Nikon E200 microscope), using standard morphological criteria.
Data are expressed as the mean±SEM, and statistical significance was determined by the Student's t test. A value of P<0.05 was taken as significant.

OVA-induced asthma = OVA-induced asthma mouse model: lung histopathology score and mucus index (alcian blue-PAS sections); format: in vivo, C57BL/6 mice; conditions: summary statement; for effect on lung pathology: fed individually
Experimental: as §1, §2

Compound | VA consumed retained as cis-9, trans-11 CLA in its triglyceride form [1] [%] | reduction of IL-5 in BAL fluid vs control diet (IL-5) [%] | average conversion rate of VA to cis-9, trans-11 CLA [2] [%] | increase of blood triglyceride levels [3] [%] | increase of total BAL cell counts vs control diet [4] [%] | increase of accumulation of eosinophils in BAL vs control diet [4] [%] | effect on leukocyte infiltration into the airway lumen [4] | effect on lung pathology (OVA-induced asthma) | increase in monocytes/macrophages in BAL vs control diet ([4]; 0.14% cis-9, trans-11 CLA diet, P=0.05) [%] | inhibition of mucus hypersecretion (significance) (OVA-induced asthma)
CCCCCC/C=C/CCCCCCCCCC(=O)O [VA, trans 11-octadecenoic acid] | ~12 | 11 | ~19 | 59 | 94 | 270 | increased | no significant effect | – | –
CCCCCC/C=C/C=C\CCCCCCCC(=O)O [cis-9, trans-11 CLA, cis-9, trans-11 conjugated linoleic acid] | – | 21 | – | – | 43 | 69 | increased | no significant effect | 35 | significance was not achieved
